Experimental data from patent US8980874B2, “Method and composition for treating diabetic ketoacidosis” (Midwestern University, priority 2009, dated 2015).
“Also recorded” adds a separate entry of the source. Non-standard residues stand in square brackets, D forms with d. Residues, ends and D or L forms follow the SMILES beside them.

Experiments:
Type in all cases: in vivo
[1] = tested on: rat model of DKA; assay: Plasma ET-1 level (Enzyme Immunometric Assay) in diabetic ketoacidosis rats; conditions: for plasma ET-1, Day 4 (pre tx): baseline before treatment; for plasma ET-1, Day 4 (pre tx) / plasma ET-1, Day 4 (end of tx): mean±SEM; for effect of treatment on plasma ET-1 level: day 4, result in words (Table 4, FIG. 9); for plasma ET-1, Day 4 (end of tx): saline+insulin, alone or after bolus BMS-182874 9 mg/kg or BQ123 1 mg/kg
Description: In order to analyze the change in plasma ET-1 level during the treatment, blood samples were withdrawn through right femoral artery of the rats before and at the end of experiment and were collected into chilled EDTA tubes (1 mg/mL blood) containing aprotinin (500 KIU/mL of blood). The blood samples were centrifuged at 1,600×g for 15 minutes at 0° C. and plasma separated was stored at −70° C. until analyzed. ET-1 level was estimated using Assay's Design's Endothelin-1 Enzyme Immunometric Assay Kit (Nowicki et al., 2005; Brondani et al., 2007). Briefly, plasma samples and standards were added to wells coated with a monoclonal antibody specific for ET-1. The plate then was washed after 24 hours of incubation, leaving only bound ET-1 on the plate. A solution of horseradish peroxidase (HRP) labeled monoclonal antibody to ET-1 then was added, which binds to the ET-1 captured on the plate. The plate was incubated for 30 min, then washed to remove excess HRP labeled antibody. A solution of 3,3′,5,5′-tetramethylbenzidine (TMB) substrate was added, which generates a blue color when catalyzed by the HRP. Hydrochloric acid (1N) was added to stop the substrate reaction, and the resulting yellow color was read at 450 nm using DTX 800 Multimode detector. The data was analyzed with Multimode Detection Software (Beckman Coulter, Inc., Fullerton, Calif.). The measured optical density is directly proportional to the concentration of ET-1 in either standards/plasma. Blood samples from all the groups were collected before the start and at end of the treatment.
(§1) Group 4: Diabetic saline/insulin treated (D-Saline+insulin treated): Rats were injected with streptozotocin in citrate buffer (150 mg/kg ip) to induce diabetes and ketoacidosis. On day three, rats were treated with 1.5 U/kg regular insulin (Humulin® R (Regular human insulin, rDNA origin). On day four, saline and insulin treatment was carried out. Rats were infused via cannulated femoral vein saline, 0.9% NaCl at 80 mL/kg/hr and 1.5 U/kg/hr regular insulin for one hour. During the next two through four hours, rats were infused with saline, 0.9% NaCl at 40 mL/kg/hr and 1.5 U/kg/hr regular insulin (Yuen et al., 2008).
(§2) Group 5: Diabetic BMS-182874/saline/insulin treated (D-BMS+Saline+insulin treated): Rats were injected with streptozotocin in citrate buffer (150 mg/kg ip) to induce diabetes and ketoacidosis. On day three, rats were treated with 1.5 U/kg regular insulin. On day four, rats were administered a bolus dose of selective ETA receptor antagonist, BMS-182874 (9 mg/kg), then saline and insulin treatment was carried out. Rats were infused via cannulated femoral vein saline, 0.9% NaCl at 80 mL/kg/hr and 1.5 U/kg/hr regular insulin for one hour. During the next two through four hours rats were infused with saline, 0.9% NaCl at 40 mL/kg/hr and 1.5 U/kg/hr regular insulin.
(§3) Group 6: Diabetic BQ123/saline/insulin treated (D-BQ+saline+insulin treated): Same as above for Group 5, except BQ123 (1 mg/kg body weight) is used as a substitute for BMS-182874 (9 mg/kg).
(§4) Data are presented as mean±SEM. The significance of differences was estimated by one-way analysis of variance (intra group comparison with respect to base line data) and two-way analysis of variance (inter group comparison with respect to corresponding time points from each groups) followed by application of the Dunnett's Multiple Comparisons and Bonferroni test respectively. A P value of less than 0.05 was considered to be significant. The statistical analysis was processed with GraphPad Prism software Version 5.00.

[2] = tested on: rat model of DKA; assay: Arterial blood gases, electrolytes, lactate and hematocrit in diabetic ketoacidosis rats; conditions: for arterial blood pH, Day 4 (pre-tx) / arterial blood pCO2, Day 4 (pre-tx) / arterial blood pO2, Day 4 (pre-tx) / blood K+ level, Day 4 (pre-tx) / blood Na+ level, Day 4 (pre-tx) / blood hematocrit (Hct), Day 4 (pre-tx): baseline; for arterial blood pH, Day 4 (pre-tx): instrument could not record pH below 6.80, mean±SEM; for arterial blood pCO2, Day 4 (pre-tx) / arterial blood pO2, Day 4 (pre-tx) / blood K+ level, Day 4 (pre-tx) / blood Na+ level, Day 4 (pre-tx) / blood hematocrit (Hct), Day 4 (pre-tx): mean±SEM; for effect of treatment on arterial blood pH (acidosis): day 4, antagonist given with saline+insulin; for effect of treatment on arterial blood pH (acidosis) / effect of treatment on blood K+ levels / effect of treatment on blood lactate levels / effect of treatment on hematocrit: result in words; for effect of treatment on blood K+ levels / effect of treatment on blood lactate levels / effect of treatment on hematocrit: day 4, compared to diabetic untreated rats; for arterial blood pCO2, Day 4 (1 hour of tx) / arterial blood pCO2, Day 4 (end of tx) / arterial blood pO2, Day 4 (1 hour of tx) / arterial blood pO2, Day 4 (end of tx) / blood K+ level, Day 4 (1 hour tx) / blood K+ level, Day 4 (end of tx) / blood Na+ level, Day 4 (1 hour of tx) / blood Na+ level, Day 4 (end of tx) / blood hematocrit (Hct), Day 4 (1 hour of tx) / blood hematocrit (Hct), Day 4 (end of tx) / arterial blood pH, Day 4 (1 hour of tx) / arterial blood pH, Day 4 (end of tx): saline+insulin, alone or after bolus BMS-182874 9 mg/kg or BQ123 1 mg/kg; for arterial blood pH, Day 4 (1 hour of tx) / arterial blood pH, Day 4 (end of tx): instrument floor 6.80
From the text: Arterial blood pH, pO2, pCO2, Na^+, K^+, lactate, and hematocrit were monitored prior to, at one hour, and at the end of treatment. Blood samples were drawn from the arterial cannula using blood gas sampling syringes (Innovative Medical Technologies, Inc. Leawood, Kans.) and analyzed using a GEM Premier 3000 unit (Instrument Laboratory, Lexington, Mass.). Blood samples were withdrawn from the femoral artery for baseline reading prior to start of treatment, after the first hour of treatment, and then at the end of the treatment (fifth hour of experiment).
as §1, §2, §3, §4

[3] = tested on: rat model of DKA; assay: Cardiovascular parameters (MAP, pulse pressure, heart rate) in diabetic ketoacidosis rats; conditions: result in words; for effect on mean arterial pressure: day 4, FIG. 3, antagonist given with saline+insulin; for effect on heart rate: day 4, FIG. 5, antagonist given with saline+insulin
From the text: Rats were anaesthetized with urethane (1.5 g/kg ip.) and prepared for the determination of hemodynamic parameters (Gulati et al., 1997a; Gulati et al., 1997b). The anesthetized rats were shaved and immobilized to prepare for cannulation. A 2-3 centimeter (cm) incision was made above the femoral vein and artery and the vessels were dissected and cleaned. The left femoral vein was cannulated (PE-50 tubing, Clay Adams, Parsipanny, N.J.) and secured for drug administration. An ultra-miniature pressure transducer SPR-320 (2F Polyurethane), with a single pressure sensor side mounted at the tip (Millar Instruments, Houston, Tex.) was inserted in the left femoral artery to acquire the hemodynamic signals. Pressure transducer was connected to bridge amplifier (ML221 Bridge Amp; AD Instruments, Mountain View, Calif., USA) with Viking connector (AEC-10C) and the signals were continuously acquired at a sampling rate of 1000 S^−1 using Millar PowerLab 16/30 data acquisition system (AD Instruments, Mountain View, Calif., USA). Mean arterial pressure (MAP), heart rate (HR), and pulse pressure (PP) were determined and analyzed with LabChart-5.00 software program (Millar Instruments). After the experiment was completed, the animals were euthanized with a high dose of urethane (3 gm/kg).
as §1, §2, §3, §4

[4] = tested on: rat model of DKA; assay: Brain blood perfusion (Laser Doppler Flowmetry) in diabetic ketoacidosis rats; conditions: day 4, FIG. 6, antagonist given with saline+insulin, result in words
Description: A burr hole was drilled into the rat skull approximately 2 millimeters (mm) to the left of midline, being careful not to disturb the brain tissue itself. Cerebrovascular perfusion was measured via a fiber optic probe (PF407) applied to the surface of the rat brain. The probe was connected to a Periflux PF2b 4000 Laser Doppler Flowmetry unit (Perimed, Stockholm, Sweden). The perfusion was determined by measuring the passage of red blood cells through the capillaries.
as §1, §2, §3, §4

Compound	plasma ET-1, Day 4 (pre tx) [1]	effect of treatment on plasma ET-1 level [1]	plasma ET-1, Day 4 (end of tx) [1]	arterial blood pH, Day 4 (pre-tx) [2]	arterial blood pCO2, Day 4 (pre-tx) [2]	arterial blood pO2, Day 4 (pre-tx) [2]	blood K+ level, Day 4 (pre-tx) [2]	blood Na+ level, Day 4 (pre-tx) [2]	blood hematocrit (Hct), Day 4 (pre-tx) [2]	effect of treatment on arterial blood pH (acidosis) [2]	effect of treatment on blood K+ levels [2]	effect of treatment on blood lactate levels [2]	effect of treatment on hematocrit [2]	arterial blood pCO2, Day 4 (1 hour of tx) [2]	arterial blood pCO2, Day 4 (end of tx) [2]	arterial blood pO2, Day 4 (1 hour of tx) [2]	arterial blood pO2, Day 4 (end of tx) [2]	blood K+ level, Day 4 (1 hour tx) [2]	blood K+ level, Day 4 (end of tx) [2]	blood Na+ level, Day 4 (1 hour of tx) [2]	also measured
CC(C)C[C@@H]1NC(=O)[C@@H](C(C)C)NC(=O)[C@@H]2CCCN2C(=O)[C@@H](CC(=O)O)NC(=O)[C@@H](Cc2c[nH]c3ccccc23)NC1=O [BQ123, Cyclo(D-Trp-D-Asp-Pro-D-Val-Leu)] (cyclo(L[dW][dD]P[dV]))	15.78 ± 4.11 pg/mL	did not significantly affect plasma ET-1 level	26.53 ± 5.52 pg/mL	6.82 ± 0.02	25.00 ± 3.7 mmHg	130.2 ± 14.04 mmHg	3.4 ± 0.45 mmol/L	140.00 ± 2.87 mmol/L	42.6 ± 4.81%	produced a significant improvement in arterial blood pH	significantly reduced the change in blood K^+ levels	significantly reduced the change in blood lactate levels	significantly reduced the hematocrit	23.6 ± 2.17 mmHg	23.2 ± 1.95 mmHg	128.4 ± 11.006 mmHg	141.2 ± 4.6 mmHg	2.04 ± 0.29 mmol/L	2.38 ± 0.34 mmol/L	147 ± 1.3 mmol/L	blood Na+ level, Day 4 (end of tx) [2]: 150.04 ± 2.43 mmol/L; blood hematocrit (Hct), Day 4 (1 hour of tx) [2]: 31.4 ± 2.97 %; blood hematocrit (Hct), Day 4 (end of tx) [2]: 31.8 ± 2.21 %; arterial blood pH, Day 4 (1 hour of tx) [2]: 6.81 ± 0.01; arterial blood pH, Day 4 (end of tx) [2]: 6.91 ± 0.01; effect on mean arterial pressure [3]: stabilized the arterial pressure; effect on heart rate [3]: did not produce any decrease in heart rate compared to baseline; effect on cerebral blood perfusion [4]: significantly blocked; also recorded: prevented an insulin induced increase in cerebral blood perfusion
Insulin: Humulin® R (Regular human insulin, rDNA origin), infused with saline	11.76 ± 1.94 pg/mL	increased the plasma levels of ET-1	22.17 ± 2.67 pg/mL	6.81 ± 0.01	30.40 ± 2.46 mmHg	145.00 ± 10.84 mmHg	3.82 ± 0.29 mmol/L	135.00 ± 2.17 mmol/L	49.80 ± 2.27%	did not produce any significant improvement in acidosis	significantly reduced the change in blood K^+ levels	significantly reduced the change in blood lactate levels	significantly reduced the hematocrit	29.00 ± 2.30 mmHg	27.60 ± 2.21 mmHg	160.20 ± 11.36 mmHg	155.60 ± 11.43 mmHg	2.92 ± 0.16 mmol/L	2.48 ± 0.24 mmol/L	141.60 ± 1.21 mmol/L	blood Na+ level, Day 4 (end of tx) [2]: 148.60 ± 0.51 mmol/L; blood hematocrit (Hct), Day 4 (1 hour of tx) [2]: 38.80 ± 1.80%; blood hematocrit (Hct), Day 4 (end of tx) [2]: 30.20 ± 3.12 %; arterial blood pH, Day 4 (1 hour of tx) [2]: 6.80 ± 0.01; arterial blood pH, Day 4 (end of tx) [2]: 6.81 ± 0.04; effect on mean arterial pressure [3]: produced much less fall in arterial pressure compared to untreated rats; effect on pulse pressure ([3]; day 4, FIG. 4, antagonist given with saline+insulin): produced much less fall in pulse pressure compared to untreated rats; effect on heart rate [3]: did not produce any decrease in heart rate compared to baseline; effect on cerebral blood perfusion [4]: produced a marked (#P<0.05) increase in cerebral blood perfusion
